According to EP4471048A1, “PEPTIDE INHIBITORS OF INTERLEUKIN-23 RECEPTOR” (Zealand Pharma A/S, priority 2023, dated 2024):

Molecular target: IL-23 mediated signalling (Homo sapiens, UniProt Q5VWK5)
Assay: Functional inhibition of IL-23 mediated STAT3 signalling (phospho-STAT3 MSD) in DB cells
Type: cell-based
Conditions: DB cells, hIL-23 at EC80
Procedure, shortened: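 DB cells preincubated with inhibitor 15 min at 37 °C, then stimulated 90 min with EC80 human IL-23; lysate phospho-STAT3 measured by MSD electrochemiluminescence. Signal normalized to IL-23-alone and buffer controls; IC50 and maximal % inhibition from 4-parameter logistic fit.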

Sequence of IL-23 mediated signalling (Q5VWK5 24-629 limits assumed): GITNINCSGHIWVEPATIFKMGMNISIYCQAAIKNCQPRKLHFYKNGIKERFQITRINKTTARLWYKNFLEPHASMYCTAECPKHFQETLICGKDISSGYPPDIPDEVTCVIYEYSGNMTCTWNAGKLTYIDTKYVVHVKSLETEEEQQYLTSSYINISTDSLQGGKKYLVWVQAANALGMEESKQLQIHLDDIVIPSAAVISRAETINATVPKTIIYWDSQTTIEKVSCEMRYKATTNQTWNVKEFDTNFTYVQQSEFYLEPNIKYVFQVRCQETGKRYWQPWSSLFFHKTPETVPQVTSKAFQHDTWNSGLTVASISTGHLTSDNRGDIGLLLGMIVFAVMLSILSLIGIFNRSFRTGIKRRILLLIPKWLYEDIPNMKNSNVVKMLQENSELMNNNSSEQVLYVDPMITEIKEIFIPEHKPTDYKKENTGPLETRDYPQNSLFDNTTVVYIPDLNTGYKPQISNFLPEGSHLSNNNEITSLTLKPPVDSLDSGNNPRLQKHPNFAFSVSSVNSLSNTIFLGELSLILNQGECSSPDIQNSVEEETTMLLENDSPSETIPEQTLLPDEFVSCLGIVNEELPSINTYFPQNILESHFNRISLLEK

IC50 (SAR tables 2-1 to 2-7, read-out: IC50 (pSTAT3)): 0.23 nM
Emax (Table 3-2, maximal inhibitory response, read-out: hIL-23 (pSTAT3) antagonist % inhibition): 102%
Compound: CC(C)C[C@]1(C)NC(=O)[C@H](Cc2ccc3ccccc3c2)NC(=O)[C@H](Cc2ccc(OCCN)cc2)NC(=O)[C@@H]2CCC(=O)N[C@H](CCCCNC(=O)CC[C@@H](C(=O)N[C@@H](CCN)C(=O)N[C@@H](Cc3cccnc3)C(N)=O)NC1=O)C(=O)N[C@@H]([C@@H](C)O)C(=O)N[C@@H](C(C)C)C(=O)N[C@@H](Cc1c[nH]c3ccccc13)C(=O)N[C@@H](CCC(N)=O)C(=O)N2 [Compound 1, [{d}K](1c)(6c)^†TVWQE(6c)[Y(2-aminoethoxy)][2-Nal][2-Me-Leu]E(1c)[Dab][3-(3-Pyridyl)-Ala]-[NH2]]
